Laboratory results: patent publication US20240033246A1, “COMPOUNDS FOR TREATING EYE DISEASES AND DISORDERS” (The State of Israel, Ministry of Agriculture & Rural …, priority 2020, published 2024)

Experiments:
[1] = system: retinal cone photoreceptors; assay: Eye cup cultures stained for M-cone opsin (cone photoreceptor cell death in vitro); format: cell-based; conditions: 8 nM TTF in growth media, 18 hours, eye cups of 21-day old RPE65/rd12 mice, vs vehicle (0.0115% DMSO)
Procedure: Eyes were obtained from 21-day old RPE65/rd12 mice, and the posterior segment was separated from the cornea, the lens, the iris, and the ciliary body under a surgical microscope. The eye cups were placed onto a microporous membrane (30 mm in diameter; Millicell-CM; Millipore, Bedford, MA) with the ganglion cell layer (GCL) facing up and the sclera facing the filter in a six-well culture plate. Each well contained 1 ml of culture medium consisting of 50% minimum essential medium/HEPES (Sigma, St. Louis, MO), 25% HBSS (Invitrogen, USA), and 25% heat inactivated fetal bovine serum (Invitrogen, USA) supplemented with 200 μM L-glutamine and 5.75 mg/ml glucose and 8 nM natural TTF (nTTF) or synthetic TTF (sTTF) or same volume of vehicle solution (0.0115% DMSO, control). The eye cups were maintained in culture at 37° C., 5% C02 incubator for 18 hours.
The eye cups were fixed with 4% paraformaldehyde (PFA) and embedded in sucrose for cryopreservation. […]
Sections from these eye cups were stained with antibodies directed against M-cone opsin (Milipore, USA) by incubating the sections with antibodies diluted 1:100 in 1% BSA (Sigma) for 16 hrs at 4° C. followed by extensive washing in PBS and 1 hour incubation with 488-AffiniPure Donkey Anti-Mouse IgG antibody (Jackson Immuno Research) at room temperature. […] The number of positively stained cells/mm retina was recorded. […]

[2] = TTF eye drops crossing the corneal barrier, HPLC of anterior chamber fluids; format: in vivo; conditions: eye drops 12.5 mg/ml in DMSO, rabbit
Procedure: TTF eye drops (12.5 mg/ml=34.7 mM in DMSO) or vehicle (DMSO) were dropped every 10 seconds on rabbit eyes (10 eye drops of 50 μL per eye−0.5 mL total volume). The eye fluids were collected 45 minutes or 3 hours later. About 100 microliters of anterior chamber fluids were collected from each eye. The eye fluids from both eyes of the same rabbit were pooled and the amount of TTF that penetrated the cornea was determined by IPLC analysis. Twenty microliters of pooled eye fluids were filtered and injected into an Agilent UIHPLC Infinity II 1290 device equipped with a Kinetex 5 μm EVO C18 column (250*4.6 mm). Running conditions were as follows: a 10-minute gradient was delivered at a flow rate of 1 mL/min: 5 minutes in a binary mobile phase which consisted of 0.5% acetic acid (in distilled water), and 5 minutes in acetonitrile in DDW. The detection was performed at a wavelength of 350 nm since, in eye fluids taken from naive rabbits or rabbits given eye drops containing DMSO only, there was no background at 350 nm interfering with the measurement. Under these conditions, the retention time of TTF is 5.086 minutes.

microglial cells = assay: Microglial activation and migration into the sub retina, Iba-1 staining of retina flat mounts; format: in vivo, RPE65/rd12 mice; conditions: eye drops 12.5 mg/ml TTF in DMSO twice daily, 6 days/week, 3 weeks; n=10; p=0.0063 vs placebo
Procedure: Eyes were lightly fixed in 4% PFA. The cornea, iris and lens were removed, the neuro-retina was peeled off and the RPE flat mount was incubated with Iba-1 antibodies (Wako chemicals, USA, 1:200 in PBS and 0.1% triton-X) for 16 hours at 4° C., followed by incubation with secondary Alexa Fluor® 488-AffiniPure Donkey Anti-Mouse IgG antibody (Jackson Immuno Research; USA, 1:400 in PBS with 0.2% DAPI) for 2 hours at room temperature. Samples were visualized using a fluorescent microscope (Olympus BX51) and recorded using the Olympus DP71 camera.
3 weeks old RPE65/rd12 mice were treated twice daily (6 days/week) for 3 weeks with eye drops containing 12.5 mg/ml (34.7 mM) TTF in DMSO (10pl/eye drop) or vehicle alone (DMSO). Each treatment consisted of one eye drop. Retina flat mounts of the treated and the control RPE65/rd12 mice were prepared as described above and stained for the microglial specific marker Iba-1.

IL-1β = IL-1β concentration in retinal lysates (ELISA); format: in vivo, RPE65/rd12 mice; conditions: eye drops 12.5 mg/ml TTF in DMSO twice daily, 6 days/week, 3 weeks; vs vehicle
Procedure: 3 weeks old RPE65/rd12 mice were treated twice daily (6 days/week) for 3 weeks with eye drops containing 12.5 mg/ml (34.7 mM) TTF in DMSO (10p1/eye drop) or vehicle alone (DMSO).
Each pair of retinas from the same mouse was homogenized in the same tube in 120 μl lysis buffer containing 10 mM TRIS pH 7.5, 100 mM NaCl, 1 mM EDTA, and 0.01% TRITON X-100. Protein concentration in each sample was determined in duplicates using a commercial kit: Pierce™ BCA Protein Assay Kit (23227), Thermo Fisher Scientific, IL, USA. IL-1β levels were tested using a commercial sandwich ELISA kit: Mouse IL-1 beta/IL-1F2 DuoSet ELISA (DY401). R&D Systems, Inc., MN, USA.

retinal photoreceptors = assay: TUNEL staining of photoreceptor layer (photoreceptor apoptosis); format: in vivo, RPE65/rd12 mice; conditions: eye drops 12.5 mg/ml TTF in DMSO twice daily, 6 days/week, 3 weeks; n=7; p=0.0013 vs placebo
Procedure: 3 weeks old RPE65/rd12 mice were treated twice daily (6 days/week) for 3 weeks with eye drops containing 12.5 mg/ml (34.7 mM) TTF in DMSO (10 μl/eye drop) or vehicle alone (DMSO).
Mice were euthanized using C02, the eyes were obtained and fixed in 10% formalin. Frozen sections were stained with TUNEL-TMR kit following manufacturer's instructions. The number of TUNEL positive nuclei in the outer nuclear layer was counted as well as the length of retinal sections. Results are shown in FIG. 6 as the number of TUNEL positive nuclei/mm retina.

retinal function = assay: Dark-adapted electroretinogram (ERG), retinal function; format: in vivo, RPE65/rd12 mice; conditions: eye drops 12.5 mg/ml TTF twice daily, 6 days/week, 12 weeks; n=6; vs placebo eye drops
Procedure: (§1) 3 weeks old RPE65/rd12 mice were treated twice daily (6 days/week) for 12 weeks with eye drops (10p1/eye drop) containing 12.5 mg/ml (34.7 mM) TTF (n=6) or vehicle alone (DMSO, n=6).
For dark adapted ERG, the mice were placed in total darkness for at least 12 h prior to examination. Animals were anesthetized with intraperitoneal injection containing 75 mg/kg ketamine and 10 mg/kg xylazine. Pupils were dilated with topical 1% tropicamide and 10% phenylephrine HCl. ERGs were recorded from both eyes simultaneously, using golden wire loop electrodes positioned on each cornea. Chloride silver electrodes were inserted subcutaneously near the temporal canthi as reference. An additional ground electrode was placed on the tail. Tests were performed under dark adapted (scotopic), and light adapted (photopic) conditions. Five light stimuli at increasing intensities were used (0.0023, 0.25, 2.4, 4.4, 23.5 cd-s/m2). For dark adapted ERG, responses were averaged with stimulus intervals of 1 to 30 s depending on the stimulus light intensity.

[3] = Side effects after daily TTF eye drops (general health, retinal and corneal structure); format: in vivo; conditions: 12 weeks of daily treatment with TTF eye drops
Procedure: as §1

COc1cc(-c2oc3cc(OC)c(OC)c(O)c3c(=O)c2O)ccc1O [TTF, 3,5,4′-trihydroxy-6,7,3′-trimethoxyflavone]
cone photoreceptor cell death in cultures of retinas [1]: attenuates cone photoreceptor cell death | crossing of the corneal barrier / penetration into the eye ([2]; 10 drops of 50 μL per eye, anterior chamber fluids): can cross the corneal barrier and penetrate the eye | time of maximal concentration of TTF in eye fluids after eye drops instillation ([2]; fluids collected at 45 minutes or 3 hours): 45 min | infiltrating subretinal microglia (mean±SD) (microglial cells): 42±14 microglia cells/retina | IL-1β concentration in the retina (IL-1β): reduced | TUNEL positive cells in the photoreceptor layer (mean±SE) (retinal photoreceptors): 2±0.4 apoptotic cells/mm retina | maximal dark-adapted ERG a-wave amplitude (retinal function): significantly higher | maximal dark-adapted ERG b-wave amplitude (retinal function): significantly higher | side effects (general health, retinal and corneal structure) [3]: no side effects were observed
